Laboratory results from patent publication US20100010046A1, “PHARMACEUTICAL FORMULATION FOR PARENTERAL ADMINISTRATION” (IRONWOOD PHARMACEUTICALS, INC., priority 2006, published 2010).

Tests used:
[1] = tested on: isolated canine parietal cell preparation; assay: Inhibition of histamine-stimulated acid secretion in an isolated canine parietal cell preparation; assay type: cell-based; details: Canis lupus familiaris, read-out: IC50 (nM), concentration required to inhibit 50% of maximal histamine-stimulated acid secretion
Excerpt: Concentrations required to inhibit 50% of maximal histamine-stimulated acid secretion in an isolated canine parietal cell preparation is shown in Table 1 below.

[2] = tested on: indomethacin-induced rat gastric ulcers; details: subcutaneous, 50 μg/kg; cited from earlier work
[3] = room temperature; presence of water (U.S. Pat. No. 5,324,746); cited from earlier work

IC50 [1]: 3.8 nM
Compound: CCCCC(C)(O)C/C=C/[C@H]1C(O)CC(=O)[C@@H]1CCCCCCC(=O)OC (stereo partly drawn) [Misoprostol]
reduced lesion formulation [2]: up to 60%
chemical stability [3]: chemically unstable at room temperature and breaks down in the presence of water
